Results reported in US20260176282A1, “BICYCLIC COMPOUNDS AS CDK INHIBITORS” (BEONE MEDICINES I GMBH, priority 2023, published 2026).
Read-outs that look alike come from different tables or passages of the source.

Assays:
CDK2/Cyclin E1 = CDK2/Cyclin E1 (Homo sapiens, UniProt P24941); assay: CDK2/Cyclin E1 TR-FRET biochemical assay (0.060 mM ATP); conditions: 120 minutes reaction
Protocol: (§1) Compounds disclosed herein were tested for inhibition of CDK2/Cyclin E1 or CDK1/Cyclin B1 kinase in an assay based on the time-resolved fluorescence-resonance energy transfer (TR-FRET) methodology. The assay was carried out in 384-well low volume black plates in a reaction mixture containing CDK2/Cyclin E1 or CDK1/Cyclin B1, 0.060 mM ATP for CDK2/Cyclin E1 or 0.015 mM ATP for CDK1/Cyclin B1, 0.15 μM Rb (Ser780)-biotin substrate and 0-10 μM compound in buffer containing 50 mM HEPES pH7.0, 0.02% NaN3, 0.01% BSA, 0.1 mM Orthovanadate, 50 mM MgCl2, 1 mM DTT and 0.005% Tween-20. The kinase was incubated with compound for 60 minutes at room temperature and the reaction was initiated by the addition of ATP and Rb (Ser780)-biotin substrate. After reaction at room temperature for 120 minutes, an equal volume of stop/detection solution was added according to the manufacture's instruction (Cisbio Bioassays). The stop/detection solution contained Streptavidin-XL665 and Anti-pRb (Ser780) mAb-Eu Cryptate in Detection buffer (Cisbio Bioassays). Plates were incubated at room temperature for 60 minutes, and the TR-FRET signals (ex337 nm, em665 nm/620 nm) were recorded on a PHERAstar FSX plate reader (BMG Labtech). The inhibition percentage of CDK2/Cyclin E1 or CDK1/Cyclin B1 kinase activity in presence of increasing concentrations of compounds was calculated based on the ratio of fluorescence at 665 nm to that at 620 nm. The IC50 for each compound was derived from fitting the data to the four-parameter logistic equation by Dotmatics.

CDK1/Cyclin B1 = CDK1/Cyclin B1 (Homo sapiens, UniProt P06493); assay: CDK1/Cyclin B1 TR-FRET biochemical assay (0.015 mM ATP); conditions: 120 minutes reaction
Protocol: as §1

HEK-293 cells = assay: HEK-293 cell cytotoxicity detection (CellTiter-Glo); type: cell-based; conditions: incubation of 72 h, CellTiter-Glo luminescence
Protocol: HEK-293 cells were treated with compounds diluted in 0.4% DMSO, dilution was done according to the following protocol: (1) making 250× stock solution in DMSO from 10 mM by 4-fold dilution, total 8 doses were included; (2) making 2 solution in cell culture medium by transferring 1 μl 250× stock solution into 124 μl medium; (3) adding 50 μl of 2× solution to cells for incubation of 72 h.
25 μl of the CellTiter-Glo® Reagent [(PromegaCat #G9242)] was added to each well in the 96-well plate. The contents were mixed for 2 minutes on an orbital shaker to induce cell lysis. The plate was then allowed to incubate at room temperature for 10 minutes to stabilize luminescent signal. Luminescence was recorded on BMG PheraStar with luminescence protocol.
The IC50 value of a compound can be obtained by fitting the following equation: […]
Wherein, X and Y are known values, and IC50, Hillslope, Top and Bottom are the parameters obtained by fitting with software. Y is the inhibition percentage (calculated from the equation), X is the concentration of the compound; IC50 is the concentration of the compound when the 50% inhibition is reached. The smaller the IC50 value is, the stronger the inhibitory ability of the compound is. Vice versa, the higher the IC50 value is, the weaker the ability the inhibitory ability of the compound is; Hillslope represents the slope of the fitted curve, generally around 1*; Bottom represents the minimum value of the curve obtained by data fitting, which is generally 0%±20%; Top represents the maximum value of the curve obtained by data fitting, which is generally 100%±20%. The experimental data were fitted by calculating and analyzing with Dotmatics data analysis software.

Sequence of CDK1/Cyclin B1 (P06493 whole entry): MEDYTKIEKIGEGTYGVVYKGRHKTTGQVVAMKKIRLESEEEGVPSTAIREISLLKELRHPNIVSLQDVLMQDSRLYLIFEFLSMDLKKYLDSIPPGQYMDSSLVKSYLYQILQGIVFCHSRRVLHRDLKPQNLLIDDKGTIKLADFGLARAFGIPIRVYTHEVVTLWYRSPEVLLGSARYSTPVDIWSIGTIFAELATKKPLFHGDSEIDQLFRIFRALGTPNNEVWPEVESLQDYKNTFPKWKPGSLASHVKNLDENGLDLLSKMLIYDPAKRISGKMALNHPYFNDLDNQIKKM
Sequence of CDK1/Cyclin B1 (P14635 whole entry partner): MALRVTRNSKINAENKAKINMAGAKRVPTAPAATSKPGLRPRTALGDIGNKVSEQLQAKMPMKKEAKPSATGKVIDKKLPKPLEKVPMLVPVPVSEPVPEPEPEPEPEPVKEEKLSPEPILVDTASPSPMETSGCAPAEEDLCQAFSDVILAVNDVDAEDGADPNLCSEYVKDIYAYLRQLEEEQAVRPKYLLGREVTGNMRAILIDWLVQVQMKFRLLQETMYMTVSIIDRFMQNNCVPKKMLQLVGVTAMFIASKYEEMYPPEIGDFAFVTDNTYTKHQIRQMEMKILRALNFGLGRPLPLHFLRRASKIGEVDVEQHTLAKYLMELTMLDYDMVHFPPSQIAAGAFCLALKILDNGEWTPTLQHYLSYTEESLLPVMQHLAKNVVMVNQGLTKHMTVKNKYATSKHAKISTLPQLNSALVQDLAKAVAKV

| IC50 (CDK2/Cyclin E1) | IC50 (CDK1/Cyclin B1) | SMILES | IC50 (HEK-293 cells; Homo sapiens, HEK293, 72 h) | IC50 (HEK-293 cells; read-out: HEK293 IC50) |
| --- | --- | --- | --- | --- |
| 0.7 nM | 30 nM | CC(C)NC(=O)O[C@@H]1CC[C@H](c2cc(Nc3ccc4c(c3F)CS(=O)(=O)C4)n[nH]2)C1 (single isomer, unassigned) [Example 8a, cis-3-(3-((4-fluoro-2,2-dioxido-1,3-dihydrobenzo[c]thiophen-5-yl)amino)-1H-pyrazol-5-yl)cyclopentyl isopropylcarbamate] | 514 nM |  |
| 1.1 nM | 12 nM | CC(C)NC(=O)O[C@H]1CC[C@@H](c2cc(Nc3ccc4c(c3)CS(=O)(=O)C4)n[nH]2)C1 (relative stereo) [Example 7, cis-3-(3-((2,2-dioxido-1,3-dihydrobenzo[c]thiophen-5-yl)amino)-1H-pyrazol-5-yl)cyclopentyl isopropylcarbamate] | 684 nM |  |
| 0.4 nM | 5 nM | CC[C@H](C)NC(=O)OC1CCC(c2cc(Nc3ccc4c(c3F)CS(=O)(=O)C4)n[nH]2)C1 (stereo in doubt) [Example 10, cis-3-(3-((4-fluoro-2,2-dioxido-1,3-dihydrobenzo[c]thiophen-5-yl)amino)-1H-pyrazol-5-yl)cyclopentyl ((S)-sec-butyl)carbamate] | 203 nM |  |
| 4.1 nM | 132 nM | CC(C)NC(=O)OC1CCC(c2cc(Nc3ccc4c(c3F)S(=O)(=O)CC4)n[nH]2)C1 (single isomer, unassigned) [Example 3a, cis-3-(3-((7-fluoro-1,1-dioxido-2,3-dihydrobenzo[b]thiophen-6-yl)amino)-1H-pyrazol-5-yl)cyclopentyl isopropylcarbamate] |  | 1780 nM |
| 1.9 nM | 31 nM | CC(C)NC(=O)OC1CCC(c2cc(Nc3ccc4c(c3F)S(=O)(=O)CC4)n[nH]2)C1 (single isomer, unassigned) [Example 3b, cis-3-(3-((7-fluoro-1,1-dioxido-2,3-dihydrobenzo[b]thiophen-6-yl)amino)-1H-pyrazol-5-yl)cyclopentyl isopropylcarbamate] |  | 677 nM |
| 4.8 nM | 207 nM | CC(C)NC(=O)OC1CCC(c2cc(Nc3ccc4c(c3F)CCS4(=O)=O)n[nH]2)C1 (single isomer, unassigned) [Example 2b, cis-3-(3-((4-fluoro-1,1-dioxido-2,3-dihydrobenzo[b]thiophen-5-yl)amino)-1H-pyrazol-5-yl)cyclopentyl isopropylcarbamate] |  | > 10000 nM |
| 0.5 nM | 7.9 nM | CC(C)NC(=O)O[C@H]1CC[C@@H](c2cc(Nc3ccc4c(c3F)CS(=O)(=O)C4)n[nH]2)C1 (relative stereo) [Example 8b, cis-3-(3-((4-fluoro-2,2-dioxido-1,3-dihydrobenzo[c]thiophen-5-yl)amino)-1H-pyrazol-5-yl)cyclopentyl isopropylcarbamate] | 462 nM |  |

The next lines start with the molecule.

| SMILES | IC50 (CDK2/Cyclin E1) | IC50 (CDK1/Cyclin B1) | IC50 (HEK-293 cells; Homo sapiens, HEK293, 72 h) | IC50 (HEK-293 cells; read-out: HEK293 IC50) |
| --- | --- | --- | --- | --- |
| CCCNC(=O)OC1CCC(c2cc(Nc3ccc4c(c3F)CS(=O)(=O)C4)n[nH]2)C1 (single isomer, unassigned) [Example 9a, cis-3-(3-((4-fluoro-2,2-dioxido-1,3-dihydrobenzo[c]thiophen-5-yl)amino)-1H-pyrazol-5-yl)cyclopentyl propylcarbamate] | 0.8 nM | 50 nM |  | > 10000 nM |
| CC1(NC(=O)O[C@H]2CC[C@@H](c3cc(Nc4ccc5c(c4F)S(=O)(=O)CC5)n[nH]3)C2)CC1 (relative stereo) [Example 6, cis-3-(3-((7-fluoro-1,1-dioxido-2,3-dihydrobenzo[b]thiophen-6-yl)amino)-1H-pyrazol-5-yl)cyclopentyl (1-methylcyclopropyl)carbamate] | 1.1 nM | 20 nM | 440 nM |  |
| CC(C)NC(=O)OC1CCC(c2cc(Nc3ccc4c(c3F)CCS4(=O)=O)n[nH]2)C1 (single isomer, unassigned) [Example 2a, cis-3-(3-((4-fluoro-1,1-dioxido-2,3-dihydrobenzo[b]thiophen-5-yl)amino)-1H-pyrazol-5-yl)cyclopentyl isopropylcarbamate] | 16 nM | 591 nM | > 10000 nM |  |
| COCC(C)(C)NC(=O)O[C@H]1CC[C@@H](c2cc(Nc3ccc4c(c3F)CS(=O)(=O)C4)n[nH]2)C1 (relative stereo) [Example 14, cis-3-(3-((4-fluoro-2,2-dioxido-1,3-dihydrobenzo[c]thiophen-5-yl)amino)-1H-pyrazol-5-yl)cyclopentyl (1-methoxy-2-methylpropan-2-yl)carbamate] | 0.6 nM | 10 nM | > 10000 nM |  |
| CCCNC(=O)OC1CCC(c2cc(Nc3ccc4c(c3F)CS(=O)(=O)C4)n[nH]2)C1 (single isomer, unassigned) [Example 9b, cis-3-(3-((4-fluoro-2,2-dioxido-1,3-dihydrobenzo[c]thiophen-5-yl)amino)-1H-pyrazol-5-yl)cyclopentyl propylcarbamate] | 0.7 nM | 12 nM |  | 4410 nM |
